Assay results: BigSolDB 2.1

Cc1ccc(-c2ncc(Cl)cc2-c2ccc(S(C)(=O)=O)cc2)cn1
solubility (mole fraction)
Conditions | 293.2 K | 298.2 K | 303.2 K | 308.2 K | 313.2 K
in 1,4-butanediol | 0.0605 | 0.0723 | 0.0873 | 0.104 | 0.124
in 1,4-dioxane | 0.0445 | 0.073 | 0.111 | 0.173 | 0.265
in DMAc | 0.0481 | 0.0811 | 0.141 | 0.236 | 0.387
in DMF | 0.0369 | 0.069 | 0.122 | 0.215 | 0.374
in DMSO | 0.0292 | 0.0605 | 0.126 | 0.253 | 0.495
in NMP | 0.0658 | 0.108 | 0.169 | 0.265 | 0.411
in ethanol | 0.0337 | 0.0537 | 0.0807 | 0.121 | 0.182
in ethylene glycol | 0.113 | 0.119 | 0.129 | 0.139 | 0.153
in formamide | 0.0586 | 0.113 | 0.225 | 0.425 | 0.779
in glycerin | 0.0558 | 0.0566 | 0.0577 | 0.0593 | 0.0625
in isopropanol | 0.0282 | 0.0452 | 0.0668 | 0.1 | 0.149
in methanol | 0.0241 | 0.0379 | 0.0561 | 0.0843 | 0.125
in n-propanol | 0.0505 | 0.0788 | 0.111 | 0.164 | 0.238
in propylene glycol | 0.0472 | 0.0605 | 0.0754 | 0.0942 | 0.117
in water | 1.36e-05 | 1.58e-05 | 1.86e-05 | 2.12e-05 | 2.44e-05

Conditions | solubility (mole fraction)
in PEG-200, 293.2 K | 0.116
in PEG-200, 298.2 K | 0.135
in PEG-200, 303.2 K | 0.156
in PEG-200, 308.2 K | 0.176
in PEG-200, 313.2 K | 0.201
in PEG-400, 293.2 K | 0.211
in PEG-400, 298.2 K | 0.238
in PEG-400, 303.2 K | 0.275
in PEG-400, 308.2 K | 0.311
in PEG-400, 313.2 K | 0.351
in PEG-600, 293.2 K | 0.329
in PEG-600, 298.2 K | 0.354
in PEG-600, 303.2 K | 0.389
in PEG-600, 308.2 K | 0.422
in PEG-600, 313.2 K | 0.456
